# According to PubChem BioAssay (NCI):
#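 Interpolation was linear, between the two tested concentrations surrounding the appropriate level; five concentrations were tested over 48 hours in 96-well plates. Abbreviation: GI50, concentration required for 50% inhibition of growth. Definition used: TGI = concentration required for complete inhibition of growth.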
# Assays:
# Assay in all cases: growth of human tumour cells (NCI), 48 h
# 786-0 renal = test system: 786-0 renal
# OVCAR-3 ovarian = test system: OVCAR-3 ovarian
# MDA-MB-435 = test system: MDA-MB-435
# NCI-H522 lung = test system: NCI-H522 lung
# RXF 393 renal = test system: RXF 393 renal
# SK-OV-3 ovarian = test system: SK-OV-3 ovarian
# CCRF-CEM leukemia = test system: CCRF-CEM leukemia
# SF-539 CNS = test system: SF-539 CNS
# IGROV1 ovarian = test system: IGROV1 ovarian
# HL-60(TB) leukemia = test system: HL-60(TB) leukemia
# NCI-H226 lung = test system: NCI-H226 lung
# A549 NSCLC = test system: A549 NSCLC
# SNB-19 CNS = test system: SNB-19 CNS
# MALME-3M melanoma = test system: MALME-3M melanoma
# MDA-MB-231 breast = test system: MDA-MB-231 breast
# M14 melanoma = test system: M14 melanoma
# SF-268 CNS = test system: SF-268 CNS
# A498 renal = test system: A498 renal
# SK-MEL-28 melanoma = test system: SK-MEL-28 melanoma
# SW-620 colon = test system: SW-620 colon
# NCI/ADR-RES ovarian = test system: NCI/ADR-RES ovarian
# SK-MEL-5 melanoma = test system: SK-MEL-5 melanoma
# BT-549 breast = test system: BT-549 breast
# PC-3 prostate = test system: PC-3 prostate
# CAKI-1 renal = test system: CAKI-1 renal
# MDA-MB-468 breast = test system: MDA-MB-468 breast
# UACC-62 melanoma = test system: UACC-62 melanoma
# DU-145 prostate = test system: DU-145 prostate
# SR leukemia = test system: SR leukemia
smiles,measurement,setting,value
COc1ccc2cc([C@H](C)C(=O)NCc3ccccc3)ccc2c1,GI50,786-0 renal,7.94 µM
same,TGI,786-0 renal,> 100 µM
same,GI50,OVCAR-3 ovarian,3.21 µM
same,TGI,OVCAR-3 ovarian,22.9 µM
same,GI50,MDA-MB-435,1.71 µM
same,TGI,MDA-MB-435,7.53 µM
same,GI50,NCI-H522 lung,2.98 µM
same,TGI,NCI-H522 lung,> 100 µM
same,GI50,RXF 393 renal,2.57 µM
same,TGI,RXF 393 renal,9.23 µM
same,GI50,SK-OV-3 ovarian,3.76 µM
same,TGI,SK-OV-3 ovarian,76.7 µM
same,GI50,CCRF-CEM leukemia,3.9 µM
same,TGI,CCRF-CEM leukemia,> 100 µM
same,GI50,SF-539 CNS,3.08 µM
same,TGI,SF-539 CNS,11.7 µM
same,GI50,IGROV1 ovarian,5.5 µM
same,TGI,IGROV1 ovarian,> 100 µM
same,GI50,HL-60(TB) leukemia,2.25 µM
same,TGI,HL-60(TB) leukemia,7.52 µM
same,GI50,NCI-H226 lung,7.83 µM
same,TGI,NCI-H226 lung,> 100 µM
same,GI50,A549 NSCLC,6.86 µM
same,TGI,A549 NSCLC,> 100 µM
same,GI50,SNB-19 CNS,5.46 µM
same,TGI,SNB-19 CNS,40.2 µM
same,GI50,MALME-3M melanoma,3.88 µM
same,TGI,MALME-3M melanoma,> 100 µM
same,GI50,MDA-MB-231 breast,4.72 µM
same,TGI,MDA-MB-231 breast,> 100 µM
same,GI50,M14 melanoma,3.61 µM
same,TGI,M14 melanoma,> 100 µM
same,GI50,SF-268 CNS,6.44 µM
same,TGI,SF-268 CNS,> 100 µM
same,GI50,A498 renal,> 100 µM
same,TGI,A498 renal,> 100 µM
same,GI50,SK-MEL-28 melanoma,7.12 µM
same,TGI,SK-MEL-28 melanoma,> 100 µM
same,GI50,SW-620 colon,3.43 µM
same,TGI,SW-620 colon,> 100 µM
same,GI50,NCI/ADR-RES ovarian,3.11 µM
same,TGI,NCI/ADR-RES ovarian,12.2 µM
same,GI50,SK-MEL-5 melanoma,3.17 µM
same,TGI,SK-MEL-5 melanoma,> 100 µM
same,GI50,BT-549 breast,5.47 µM
same,TGI,BT-549 breast,> 100 µM
same,GI50,PC-3 prostate,4.44 µM
same,TGI,PC-3 prostate,> 100 µM
same,GI50,CAKI-1 renal,4.78 µM
same,TGI,CAKI-1 renal,> 100 µM
same,GI50,MDA-MB-468 breast,1.98 µM
same,TGI,MDA-MB-468 breast,5.52 µM
same,GI50,UACC-62 melanoma,3.75 µM
same,TGI,UACC-62 melanoma,> 100 µM
same,GI50,DU-145 prostate,5.52 µM
same,TGI,DU-145 prostate,> 100 µM
same,GI50,SR leukemia,1.78 µM
same,TGI,SR leukemia,> 100 µM
